Source: ChEMBL document CHEMBL1201862, “PubChem BioAssay data set” (2004)
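Briefly, cells in 96-well plates were exposed to five compound concentrations for 48 h, and endpoints were estimated by linear interpolation. GI50 marks 50% less growth.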 Calls of active or inactive are those of the source. Rule as the data show it: active = GI50 up to about 1.1 µM and inactive = higher.

Experiments:
Assay in all cases: DTP human tumour cell line panel, 48 h
[1] = test system: A549
[2] = test system: CAKI-1
[3] = test system: SK-MEL-28
[4] = test system: SNB-19
[5] = test system: HOP-62
[6] = test system: ACHN
[7] = test system: IGROV-1
[8] = test system: KM-20L2
[9] = test system: SK-MEL-5
[10] = test system: 786-0
[11] = test system: SNB-75
[12] = test system: SR
[13] = test system: SF-295
[14] = test system: SK-OV-3
[15] = test system: UACC-257
[16] = test system: Malme-3M
[17] = test system: UACC-62
[18] = test system: RPMI-8226
[19] = test system: HCT-15
[20] = test system: MDA-MB-435

Row | Compound | GI50 [1] | GI50 [2] | GI50 [3] | GI50 [4] | GI50 [5] | GI50 [6] | GI50 [7] | GI50 [8] | GI50 [9] | GI50 [10] | GI50 [11] | GI50 [12] | GI50 [13] | GI50 [14] | GI50 [15] | GI50 [16] | GI50 [17] | GI50 [18] | GI50 [19] [µM] | GI50 [20]
1 | CCOC(=O)C(CCCNC(=O)OC(C)(C)C)N(Cc1ccc(OC)cc1OC)C(=O)CC(=O)CP(=O)(OCC)OCC (stereo not given) | > 100 µM (inactive) | > 100 µM (inactive) | > 100 µM (inactive) | > 100 µM (inactive) | > 100 µM (inactive) | > 100 µM (inactive) | > 100 µM (inactive) | > 100 µM (inactive) | > 100 µM (inactive) | > 100 µM (inactive) | > 100 µM (inactive) | 42.7 µM (inactive) | > 100 µM (inactive) | > 100 µM (inactive) | > 100 µM (inactive) | > 100 µM (inactive) | > 100 µM (inactive) | > 100 µM (inactive) |  | 
2 | O=c1c2cc3c(cc2c2cccc4c2n1CCC4)OCO3 | 51.6 µM (inactive) | 78.9 µM (inactive) | 69.5 µM (inactive) | 44.7 µM (inactive) | 56.8 µM (inactive) | 33.7 µM (inactive) | 36.1 µM (inactive) | 45.7 µM (inactive) | 42.4 µM (inactive) | 27 µM (inactive) | 26.7 µM (inactive) | 29.2 µM (inactive) | 33.8 µM (inactive) | 55.3 µM (inactive) | 33.1 µM (inactive) | 86.1 µM (inactive) | 46.2 µM (inactive) | 30.2 µM (inactive) | 36.7 | 
3 | Cc1cc(Br)ccc1NC1=CC(=O)C(=O)c2ccccc21 | 39.1 µM (inactive) | 28.1 µM (inactive) | 45.3 µM (inactive) | 24.2 µM (inactive) | > 100 µM (inactive) | 36.4 µM (inactive) | 77.6 µM (inactive) | > 100 µM (inactive) | 20 µM (inactive) | 38.5 µM (inactive) | 41.1 µM (inactive) | 15.5 µM (inactive) | 38.5 µM (inactive) | 49.3 µM (inactive) | 15.9 µM (inactive) | 24.3 µM (inactive) | 20 µM (inactive) | 36.9 µM (inactive) | 55.2 | 
4 | COc1ccc(N2C(=O)/C(=C/c3ccc(N(CCC#N)CCC#N)cc3C)N=C2c2cc([N+](=O)[O-])ccc2Cl)cc1 | 4.89 µM (inactive) | 7 µM (inactive) | 11 µM (inactive) | 8.13 µM (inactive) | 5.46 µM (inactive) | 22.6 µM (inactive) | 19.7 µM (inactive) | 2.31 µM (inactive) | 5.43 µM (inactive) | 4.43 µM (inactive) | 3.3 µM (inactive) | 3.24 µM (inactive) | 3.05 µM (inactive) | 4.54 µM (inactive) | 46.3 µM (inactive) | 27 µM (inactive) | 5.27 µM (inactive) | 4.18 µM (inactive) | 3.84 | 1.96 µM (inactive)
5 | O=C(CCc1nnc2s/c(=C\c3ccc(Cl)cc3Cl)c(=O)n12)Nc1cc(Cl)c(Cl)cc1Cl | > 10 µM (inactive) | > 10 µM (inactive) | > 10 µM (inactive) | > 10 µM (inactive) | > 10 µM (inactive) | > 10 µM (inactive) | > 10 µM (inactive) | > 10 µM (inactive) | > 10 µM (inactive) | > 10 µM (inactive) | 29 µM (inactive) | > 10 µM (inactive) | > 10 µM (inactive) | > 10 µM (inactive) | > 10 µM (inactive) | > 10 µM (inactive) | > 10 µM (inactive) | > 10 µM (inactive) | > 10 | 
